Source: ChEMBL document CHEMBL1671627, “Increasing trends in antimicrobial resistance among clinically important anaerobes and Bacteroides fragilis isolates causing nosocomial infections: emerging resistance to carbapenems” (2008)
≈ marks a conversion by molar mass, not a printed value.

How the values were obtained:
[1] = system: Fusobacterium necrophorum; test: Antibacterial activity against Fusobacterium necrophorum assessed as resistant isolates by CLSI agar dilution method; format: functional
[2] = system: Clostridium paraputrificum; test: Antibacterial activity against beta-lactamase producing Clostridium paraputrificum assessed as susceptible isolates by CLSI agar dilution method; format: functional
[3] = system: Peptostreptococcus anaerobius; test: Antibacterial activity against beta-lactamase producing Peptostreptococcus anaerobius assessed as resistant isolates by CLSI agar dilution method; format: functional
[4] = system: Prevotella intermedia; test: Antibacterial activity against Prevotella intermedia assessed as susceptible isolates by CLSI agar dilution method; format: functional
[5] = system: Peptostreptococcus anaerobius; test: Antibacterial activity against beta-lactamase producing Peptostreptococcus anaerobius assessed as susceptible isolates by CLSI agar dilution method; format: functional
[6] = system: Phocaeicola vulgatus; test: Antibacterial activity against beta-lactamase producing Bacteroides vulgatus assessed as susceptible isolates by CLSI agar dilution method; format: functional
[7] = system: Parvimonas micra; test: Antibacterial activity against beta-lactamase producing Micromonas micros assessed as resistant isolates by CLSI agar dilution method; format: functional
[8] = system: Bacteroides caccae; test: Antibacterial activity against beta-lactamase producing Bacteroides caccae assessed as susceptible isolates by CLSI agar dilution method; format: functional
[9] = system: Prevotella melaninogenica; test: Antibacterial activity against Prevotella melaninogenica assessed as susceptible isolates by CLSI agar dilution method; format: functional
[10] = system: Clostridium septicum; test: Antibacterial activity against beta-lactamase producing Clostridium septicum by CLSI agar dilution method; format: functional
[11] = system: Clostridium septicum; test: Antibacterial activity against beta-lactamase producing Clostridium septicum assessed as resistant isolates by CLSI agar dilution method; format: functional
[12] = system: Prevotella buccae; test: Antibacterial activity against Prevotella buccae assessed as susceptible isolates by CLSI agar dilution method; format: functional, Segatella buccae
[13] = system: Bacteroides thetaiotaomicron; test: Antibacterial activity against beta-lactamase producing Bacteroides thetaiotaomicron assessed as susceptible isolates by CLSI agar dilution method; format: functional
[14] = system: Clostridium septicum; test: Antibacterial activity against beta-lactamase producing Clostridium septicum assessed as susceptible isolates by CLSI agar dilution method; format: functional
[15] = system: Fusobacterium varium; test: Antibacterial activity against Fusobacterium varium by CLSI agar dilution method; format: functional
[16] = system: Prevotella intermedia; test: Antibacterial activity against Prevotella intermedia assessed as resistant isolates by CLSI agar dilution method; format: functional
[17] = system: Prevotella buccae; test: Antibacterial activity against Prevotella buccae by CLSI agar dilution method; format: functional; conditions: Segatella buccae
[18] = system: Fusobacterium varium; test: Antibacterial activity against Fusobacterium varium assessed as resistant isolates by CLSI agar dilution method; format: functional
[19] = system: Clostridium tertium; test: Antibacterial activity against beta-lactamase producing Clostridium tertium assessed as susceptible isolates by CLSI agar dilution method; format: functional
[20] = system: Clostridium paraputrificum; test: Antibacterial activity against beta-lactamase producing Clostridium paraputrificum by CLSI agar dilution method; format: functional
[21] = system: Prevotella bivia; test: Antibacterial activity against Prevotella bivia assessed as resistant isolates by CLSI agar dilution method; format: functional
[22] = system: Phocaeicola vulgatus; test: Antibacterial activity against beta-lactamase producing Bacteroides vulgatus by CLSI agar dilution method; format: functional
[23] = system: Peptoniphilus asaccharolyticus; test: Antibacterial activity against beta-lactamase producing Peptoniphilus asaccharolyticus assessed as susceptible isolates by CLSI agar dilution method; format: functional
[24] = system: Finegoldia magna; test: Antibacterial activity against beta-lactamase producing Finegoldia magna assessed as susceptible isolates by CLSI agar dilution method; format: functional
[25] = system: Peptostreptococcus anaerobius; test: Antibacterial activity against beta-lactamase producing Peptostreptococcus anaerobius by CLSI agar dilution method; format: functional
[26] = system: Prevotella melaninogenica; test: Antibacterial activity against Prevotella melaninogenica by CLSI agar dilution method; format: functional
[27] = system: Bacteroides fragilis; test: Antibacterial activity against Bacteroides fragilis by CLSI agar dilution method; format: functional
[28] = system: Bacteroides uniformis; test: Antibacterial activity against beta-lactamase producing Bacteroides uniformis assessed as resistant isolates by CLSI agar dilution method; format: functional
[29] = system: Veillonella parvula; test: Antibacterial activity against Veillonella parvula by CLSI agar dilution method; format: functional
[30] = system: Bacteroides caccae; test: Antibacterial activity against beta-lactamase producing Bacteroides caccae assessed as resistant isolates by CLSI agar dilution method; format: functional
[31] = system: Prevotella intermedia; test: Antibacterial activity against Prevotella intermedia by CLSI agar dilution method; format: functional
[32] = system: Fusobacterium necrophorum; test: Antibacterial activity against Fusobacterium necrophorum assessed as susceptible isolates by CLSI agar dilution method; format: functional
[33] = system: Finegoldia magna; test: Antibacterial activity against beta-lactamase producing Finegoldia magna by CLSI agar dilution method; format: functional
[34] = system: Peptoniphilus asaccharolyticus; test: Antibacterial activity against beta-lactamase producing Peptoniphilus asaccharolyticus by CLSI agar dilution method; format: functional
[35] = system: Parvimonas micra; test: Antibacterial activity against beta-lactamase producing Micromonas micros by CLSI agar dilution method; format: functional
[36] = system: Phocaeicola vulgatus; test: Antibacterial activity against beta-lactamase producing Bacteroides vulgatus assessed as resistant isolates by CLSI agar dilution method; format: functional
[37] = system: Parvimonas micra; test: Antibacterial activity against beta-lactamase producing Micromonas micros assessed as susceptible isolates by CLSI agar dilution method; format: functional
[38] = system: Fusobacterium nucleatum; test: Antibacterial activity against Fusobacterium nucleatum assessed as resistant isolates by CLSI agar dilution method; format: functional
[39] = system: Bacteroides uniformis; test: Antibacterial activity against beta-lactamase producing Bacteroides uniformis by CLSI agar dilution method; format: functional
[40] = system: Prevotella bivia; test: Antibacterial activity against Prevotella bivia assessed as susceptible isolates by CLSI agar dilution method; format: functional
[41] = system: Clostridium tertium; test: Antibacterial activity against beta-lactamase producing Clostridium tertium assessed as resistant isolates by CLSI agar dilution method; format: functional
[42] = system: Prevotella melaninogenica; test: Antibacterial activity against Prevotella melaninogenica assessed as resistant isolates by CLSI agar dilution method; format: functional
[43] = system: Bacteroides thetaiotaomicron; test: Antibacterial activity against beta-lactamase producing Bacteroides thetaiotaomicron assessed as resistant isolates by CLSI agar dilution method; format: functional
[44] = system: Peptoniphilus asaccharolyticus; test: Antibacterial activity against beta-lactamase producing Peptoniphilus asaccharolyticus assessed as resistant isolates by CLSI agar dilution method; format: functional
[45] = system: Clostridium tertium; test: Antibacterial activity against beta-lactamase producing Clostridium tertium by CLSI agar dilution method; format: functional
[46] = system: Fusobacterium necrophorum; test: Antibacterial activity against Fusobacterium necrophorum by CLSI agar dilution method; format: functional
[47] = system: Finegoldia magna; test: Antibacterial activity against beta-lactamase producing Finegoldia magna assessed as resistant isolates by CLSI agar dilution method; format: functional
[48] = system: Bacteroides uniformis; test: Antibacterial activity against beta-lactamase producing Bacteroides uniformis assessed as susceptible isolates by CLSI agar dilution method; format: functional
[49] = system: Clostridium paraputrificum; test: Antibacterial activity against beta-lactamase producing Clostridium paraputrificum assessed as resistant isolates by CLSI agar dilution method; format: functional
[50] = system: Clostridium perfringens; test: microbe, parasite or virus in culture; format: functional
[51] = system: Bacteroides fragilis; test: Antibacterial activity against Bacteroides fragilis assessed as resistant isolates by CLSI agar dilution method; format: functional
[52] = system: Bacteroides thetaiotaomicron; test: Antibacterial activity against beta-lactamase producing Bacteroides thetaiotaomicron by CLSI agar dilution method; format: functional
[53] = system: Prevotella bivia; test: Antibacterial activity against Prevotella bivia by CLSI agar dilution method; format: functional
[54] = system: Fusobacterium mortiferum; test: Antibacterial activity against Fusobacterium mortiferum by CLSI agar dilution method; format: functional
[55] = system: Bacteroides fragilis; test: Antibacterial activity against Bacteroides fragilis assessed as susceptible isolates by CLSI agar dilution method; format: functional
[56] = system: Prevotella buccae; test: Antibacterial activity against Prevotella buccae assessed as resistant isolates by CLSI agar dilution method; format: functional, Segatella buccae
[57] = system: Bacteroides caccae; test: Antibacterial activity against beta-lactamase producing Bacteroides caccae by CLSI agar dilution method; format: functional
[58] = system: Fusobacterium varium; test: Antibacterial activity against Fusobacterium varium assessed as susceptible isolates by CLSI agar dilution method; format: functional
[59] = system: Fusobacterium mortiferum; test: Antibacterial activity against Fusobacterium mortiferum assessed as resistant isolates by CLSI agar dilution method; format: functional
[60] = system: Fusobacterium mortiferum; test: Antibacterial activity against Fusobacterium mortiferum assessed as susceptible isolates by CLSI agar dilution method; format: functional
[61] = system: Fusobacterium nucleatum; test: Antibacterial activity against Fusobacterium nucleatum by CLSI agar dilution method; format: functional
[62] = system: Fusobacterium nucleatum; test: Antibacterial activity against Fusobacterium nucleatum assessed as susceptible isolates by CLSI agar dilution method; format: functional

C[C@@H](O)[C@H]1C(=O)N2C(C(=O)O)=C(SCCNC=N)C[C@H]12 [IMIPENEM ANHYDROUS]
Activity [1]: 4%
Activity [2]: 85%
Activity [3]: 0%
Activity [4]: 94%
Activity [5]: 100%
Activity [6]: 96%
Activity [7]: 0%
Activity [8]: 96%
Activity [9]: 94%
MIC50 [10]: 0.25 µg/mL (≈ 0.835 µM)
MIC90 [10]: 8 µg/mL (≈ 26.7 µM)
Activity [11]: 4%
Activity [12]: 94%
Activity [13]: 93%
Activity [14]: 85%
MIC [15]: 0.01 µg/mL (≈ 0.0334 µM)
MIC50 [15]: 0.5 µg/mL (≈ 1.67 µM)
MIC90 [15]: 4 µg/mL (≈ 13.4 µM)
Activity [16]: 6%
MIC50 [17]: 0.25 µg/mL (≈ 0.835 µM)
MIC90 [17]: 0.5 µg/mL (≈ 1.67 µM)
Activity [18]: 4%
Activity [19]: 85%
MIC50 [20]: 0.25 µg/mL (≈ 0.835 µM)
MIC90 [20]: 8 µg/mL (≈ 26.7 µM)
Activity [21]: 6%
MIC50 [22]: 1 µg/mL (≈ 3.34 µM)
MIC90 [22]: 4 µg/mL (≈ 13.4 µM)
Activity [23]: 100%
Activity [24]: 100%
MIC50 [25]: 0.06 µg/mL (≈ 0.2 µM)
MIC90 [25]: 0.5 µg/mL (≈ 1.67 µM)
MIC50 [26]: 0.25 µg/mL (≈ 0.835 µM)
MIC90 [26]: 0.5 µg/mL (≈ 1.67 µM)
MIC50 [27]: 0.5 µg/mL (≈ 1.67 µM)
MIC90 [27]: 4 µg/mL (≈ 13.4 µM)
Activity [28]: 4%
MIC [29]: 0.12 µg/mL (≈ 0.401 µM)
Activity [30]: 4%
MIC50 [31]: 0.25 µg/mL (≈ 0.835 µM)
MIC90 [31]: 0.5 µg/mL (≈ 1.67 µM)
Activity [32]: 96%
MIC50 [33]: 0.06 µg/mL (≈ 0.2 µM)
MIC90 [33]: 0.5 µg/mL (≈ 1.67 µM)
MIC50 [34]: 0.06 µg/mL (≈ 0.2 µM)
MIC90 [34]: 0.5 µg/mL (≈ 1.67 µM)
MIC50 [35]: 0.06 µg/mL (≈ 0.2 µM)
MIC90 [35]: 0.5 µg/mL (≈ 1.67 µM)
Activity [36]: 4%
Activity [37]: 100%
Activity [38]: 4%
MIC50 [39]: 1 µg/mL (≈ 3.34 µM)
MIC90 [39]: 4 µg/mL (≈ 13.4 µM)
Activity [40]: 94%
Activity [41]: 4%
Activity [42]: 6%
Activity [43]: 0%
Activity [44]: 0%
MIC50 [45]: 0.25 µg/mL (≈ 0.835 µM)
MIC90 [45]: 8 µg/mL (≈ 26.7 µM)
MIC [46]: 0.01 µg/mL (≈ 0.0334 µM)
MIC50 [46]: 0.5 µg/mL (≈ 1.67 µM)
MIC90 [46]: 4 µg/mL (≈ 13.4 µM)
Activity [47]: 0%
Activity [48]: 96%
Activity [49]: 4%
MIC50 [50]: 0.25 µg/mL (≈ 0.835 µM)
MIC90 [50]: 8 µg/mL (≈ 26.7 µM)
Activity [51]: 3%
MIC50 [52]: 0.5 µg/mL (≈ 1.67 µM)
MIC90 [52]: 4 µg/mL (≈ 13.4 µM)
MIC50 [53]: 0.25 µg/mL (≈ 0.835 µM)
MIC90 [53]: 0.5 µg/mL (≈ 1.67 µM)
MIC [54]: 0.01 µg/mL (≈ 0.0334 µM)
MIC50 [54]: 0.5 µg/mL (≈ 1.67 µM)
MIC90 [54]: 4 µg/mL (≈ 13.4 µM)
Activity [55]: 93%
Activity [56]: 6%
MIC50 [57]: 1 µg/mL (≈ 3.34 µM)
MIC90 [57]: 4 µg/mL (≈ 13.4 µM)
Activity [58]: 96%
Activity [59]: 4%
Activity [60]: 96%
MIC [61]: 0.01 µg/mL (≈ 0.0334 µM)
MIC50 [61]: 0.5 µg/mL (≈ 1.67 µM)
MIC90 [61]: 4 µg/mL (≈ 13.4 µM)
Activity [62]: 96%
